Measured values published in ChEMBL document CHEMBL5303573, “Mapping human microbiome drug metabolism by gut bacteria and their genes” (Nature, 2019).

What was measured:
[1] = The drug is tested on Anaerococcus hydrogenalis strain: DSM7454 for biotransformation. The drug concentrations were measured before and after a 12-h incubation by liquid-chromatography-coupled mass spectrometry (LC–MS); details: 2 µM
[2] = The drug is tested on Escherichia coli strain: BW25113 for biotransformation. The drug concentrations were measured before and after a 12-h incubation by liquid-chromatography-coupled mass spectrometry (LC–MS); details: 2 µM
[3] = The drug is tested on Eubacterium hallii strain: DSM3353 for biotransformation. The drug concentrations were measured before and after a 12-h incubation by liquid-chromatography-coupled mass spectrometry (LC–MS); details: anaerobutyricum hallii, 2 µM
[4] = The drug is tested on Dorea formicigenerans strain: ATCC27755 for biotransformation. The drug concentrations were measured before and after a 12-h incubation by liquid-chromatography-coupled mass spectrometry (LC–MS); details: 2 µM
[5] = parabacteroides distasonis, 12 h, 2 µM
Description: The drug is tested on Parabacteroides distasonis strain: ATCC8503 for biotransformation. The drug concentrations were measured before and after a 12-h incubation by liquid-chromatography-coupled mass spectrometry (LC–MS)

[6] = The drug is tested on Collinsella aerofaciens strain: ATCC25986 for biotransformation. The drug concentrations were measured before and after a 12-h incubation by liquid-chromatography-coupled mass spectrometry (LC–MS); details: 2 µM
[7] = The drug is tested on Eubacterium rectale strain: ATCC33656 for biotransformation. The drug concentrations were measured before and after a 12-h incubation by liquid-chromatography-coupled mass spectrometry (LC–MS); details: agathobacter rectalis, 2 µM
[8] = The drug is tested on Providencia stuartii strain: ATCC25827 for biotransformation. The drug concentrations were measured before and after a 12-h incubation by liquid-chromatography-coupled mass spectrometry (LC–MS); details: 2 µM
[9] = The drug is tested on Bacteroides dorei strain: DSM17855 for biotransformation. The drug concentrations were measured before and after a 12-h incubation by liquid-chromatography-coupled mass spectrometry (LC–MS); details: phocaeicola dorei, 2 µM
[10] = The drug is tested on Bacteroides finegoldii strain: DSM17565 for biotransformation. The drug concentrations were measured before and after a 12-h incubation by liquid-chromatography-coupled mass spectrometry (LC–MS); details: 2 µM
[11] = The drug is tested on Subdoligranulum variabile strain: DSM15176 for biotransformation. The drug concentrations were measured before and after a 12-h incubation by liquid-chromatography-coupled mass spectrometry (LC–MS); details: 2 µM
[12] = The drug is tested on Bacteroides fragilis strain: HMW610 for biotransformation. The drug concentrations were measured before and after a 12-h incubation by liquid-chromatography-coupled mass spectrometry (LC–MS); details: 2 µM
[13] = The drug is tested on Bifidobacterium breve strain: DSM20213 for biotransformation. The drug concentrations were measured before and after a 12-h incubation by liquid-chromatography-coupled mass spectrometry (LC–MS); details: 2 µM
[14] = bacteroides fragilis, 12 h, 2 µM
Description: The drug is tested on Bacteroides fragilis strain: 3397 (T10) for biotransformation. The drug concentrations were measured before and after a 12-h incubation by liquid-chromatography-coupled mass spectrometry (LC–MS)

[15] = The drug is tested on Bacteroides uniformis strain: ATCC8492 for biotransformation. The drug concentrations were measured before and after a 12-h incubation by liquid-chromatography-coupled mass spectrometry (LC–MS); details: 2 µM
[16] = The drug is tested on Anaerotruncus colihominis strain: DSM17241 for biotransformation. The drug concentrations were measured before and after a 12-h incubation by liquid-chromatography-coupled mass spectrometry (LC–MS); details: 2 µM
[17] = The drug is tested on Bifidobacterium longum subsp. Infantis strain: CCUG52486 for biotransformation. The drug concentrations were measured before and after a 12-h incubation by liquid-chromatography-coupled mass spectrometry (LC–MS); details: 2 µM
[18] = The drug is tested on Coprococcus comes strain: ATCC27758 for biotransformation. The drug concentrations were measured before and after a 12-h incubation by liquid-chromatography-coupled mass spectrometry (LC–MS); type: ADME; parameters: dose 2 uM, timepoint 0 vs 12 hours; details: 2 µM
[19] = The drug is tested on Clostridium asparagiforme strain: DSM15981 for biotransformation. The drug concentrations were measured before and after a 12-h incubation by liquid-chromatography-coupled mass spectrometry (LC–MS); type: ADME; parameters: dose 2 uM, timepoint 0 vs 12 hours; details: enterocloster asparagiformis, 2 µM
[20] = The drug is tested on Bacteroides fragilis strain: HMW615 for biotransformation. The drug concentrations were measured before and after a 12-h incubation by liquid-chromatography-coupled mass spectrometry (LC–MS); details: 2 µM

| Bacterial Biotransformation [1] | Bacterial Biotransformation [3] | Bacterial Biotransformation [4] | Bacterial Biotransformation [5] | Bacterial Biotransformation [6] | Bacterial Biotransformation [7] | Bacterial Biotransformation [12] | Bacterial Biotransformation [13] | Bacterial Biotransformation [14] | Bacterial Biotransformation [15] | Bacterial Biotransformation [16] | Bacterial Biotransformation [17] | Bacterial Biotransformation [18] | Bacterial Biotransformation [19] | Bacterial Biotransformation [20] | SMILES | Bacterial Biotransformation [2] | Bacterial Biotransformation [8] | Bacterial Biotransformation [9] | Bacterial Biotransformation [10] | Bacterial Biotransformation [11] |
| --- | --- | --- | --- | --- | --- | --- | --- | --- | --- | --- | --- | --- | --- | --- | --- | --- | --- | --- | --- | --- |
| Compound NOT metabolized | Compound NOT metabolized | Compound NOT metabolized | Compound NOT metabolized | Compound NOT metabolized | – | Compound NOT metabolized | Compound NOT metabolized | Compound NOT metabolized | Compound NOT metabolized | Compound NOT metabolized | Compound NOT metabolized | – | Compound NOT metabolized | Compound NOT metabolized | NS(=O)(=O)c1cc2c(cc1Cl)N=C(CSCc1ccccc1)NS2(=O)=O [BENZTHIAZIDE] | – | – | – | – | – |
| Compound NOT metabolized | Compound NOT metabolized | Compound NOT metabolized | Compound metabolized | Compound NOT metabolized | Compound NOT metabolized | – | Compound metabolized | Compound metabolized | Compound metabolized | – | Compound NOT metabolized | Compound NOT metabolized | – | Compound metabolized | CCOC(=O)[C@H](CCc1ccccc1)N[C@@H](C)C(=O)N1Cc2ccccc2C[C@H]1C(=O)O | Compound NOT metabolized | Compound metabolized | Compound metabolized | – | Compound metabolized |
| Compound NOT metabolized | Compound NOT metabolized | Compound NOT metabolized | Compound NOT metabolized | Compound NOT metabolized | Compound NOT metabolized | Compound NOT metabolized | Compound NOT metabolized | Compound NOT metabolized | Compound metabolized | Compound NOT metabolized | Compound NOT metabolized | Compound NOT metabolized | – | Compound NOT metabolized | CCN(CC)CCNC(=O)c1ccc(NC(C)=O)cc1 [ACECAINIDE] | Compound NOT metabolized | – | – | Compound NOT metabolized | Compound NOT metabolized |
| Compound metabolized | Compound NOT metabolized | Compound NOT metabolized | Compound metabolized | Compound NOT metabolized | Compound NOT metabolized | – | Compound metabolized | Compound metabolized | Compound metabolized | – | Compound NOT metabolized | Compound NOT metabolized | Compound NOT metabolized | Compound metabolized | CCOC(=O)[C@H](CCc1ccccc1)N[C@@H](C)C(=O)N1[C@H](C(=O)O)C[C@H]2CCCC[C@@H]21 [TRANDOLAPRIL] | – | Compound NOT metabolized | Compound metabolized | Compound NOT metabolized | – |
| Compound metabolized | Compound NOT metabolized | Compound NOT metabolized | Compound metabolized | Compound metabolized | Compound NOT metabolized | Compound NOT metabolized | Compound metabolized | Compound NOT metabolized | Compound metabolized | Compound NOT metabolized | Compound NOT metabolized | Compound NOT metabolized | – | Compound NOT metabolized | CN1CCN(CC/C=C2/c3ccccc3Sc3ccc(S(=O)(=O)N(C)C)cc32)CC1 [THIOTHIXENE] | Compound NOT metabolized | Compound metabolized | Compound metabolized | – | Compound NOT metabolized |

| SMILES | Bacterial Biotransformation [1] | Bacterial Biotransformation [3] | Bacterial Biotransformation [4] | Bacterial Biotransformation [5] | Bacterial Biotransformation [6] | Bacterial Biotransformation [7] | Bacterial Biotransformation [12] | Bacterial Biotransformation [13] | Bacterial Biotransformation [14] | Bacterial Biotransformation [15] | Bacterial Biotransformation [16] | Bacterial Biotransformation [17] | Bacterial Biotransformation [18] | Bacterial Biotransformation [19] | Bacterial Biotransformation [20] | Bacterial Biotransformation [2] | Bacterial Biotransformation [8] | Bacterial Biotransformation [9] | Bacterial Biotransformation [10] | Bacterial Biotransformation [11] |
| --- | --- | --- | --- | --- | --- | --- | --- | --- | --- | --- | --- | --- | --- | --- | --- | --- | --- | --- | --- | --- |
| CC(C)(C)NCC(O)c1cc(Cl)c(N)c(Cl)c1 (stereo not drawn) [CLENBUTEROL] | Compound NOT metabolized | Compound NOT metabolized | Compound NOT metabolized | Compound NOT metabolized | Compound NOT metabolized | Compound NOT metabolized | Compound NOT metabolized | Compound NOT metabolized | Compound NOT metabolized | Compound NOT metabolized | Compound NOT metabolized | Compound NOT metabolized | Compound NOT metabolized | – | – | Compound NOT metabolized | Compound NOT metabolized | Compound NOT metabolized | Compound NOT metabolized | Compound NOT metabolized |
| O=P1(N(CCCl)CCCl)NCCCO1 (stereo not drawn) [CYCLOPHOSPHAMIDE ANHYDROUS] | Compound NOT metabolized | – | – | Compound NOT metabolized | Compound NOT metabolized | Compound NOT metabolized | – | Compound NOT metabolized | Compound NOT metabolized | Compound NOT metabolized | – | – | – | – | Compound metabolized | Compound NOT metabolized | Compound NOT metabolized | – | Compound NOT metabolized | Compound NOT metabolized |
| CN(C)CCOC(c1ccc(Cl)cc1)c1ccccn1.O=C(O)/C=C\C(=O)O (stereo not drawn) [CARBINOXAMINE MALEATE] | Compound NOT metabolized | Compound NOT metabolized | Compound NOT metabolized | Compound NOT metabolized | Compound NOT metabolized | – | – | Compound NOT metabolized | Compound NOT metabolized | Compound NOT metabolized | Compound NOT metabolized | Compound NOT metabolized | Compound NOT metabolized | Compound NOT metabolized | Compound NOT metabolized | – | Compound NOT metabolized | Compound NOT metabolized | Compound NOT metabolized | – |
| CN1CCN(C2=Nc3cc(Cl)ccc3Nc3ccccc32)CC1 [CLOZAPINE] | Compound NOT metabolized | Compound NOT metabolized | Compound NOT metabolized | – | Compound NOT metabolized | Compound NOT metabolized | Compound NOT metabolized | Compound NOT metabolized | Compound NOT metabolized | Compound NOT metabolized | – | Compound NOT metabolized | Compound NOT metabolized | – | Compound NOT metabolized | Compound NOT metabolized | Compound NOT metabolized | Compound NOT metabolized | Compound NOT metabolized | Compound NOT metabolized |
